Among the data in PubChem BioAssay AID651792 (The Scripps Research Institute Molecular Screening Center, 2012) are EC50 values, retold here.

Activity calls are given as the source filed them. The rule behind the calls is not given here.

This assay has as its system FXN GAA850 promoter luciferase reporter, luminescence. The assay can be described thus: GAA850 FXN promoter activators, dose response, cell-based, luminescence, GAA850 repeat (AID 651792).
For the compound `COc1ccc(-c2nnc(Nc3nc4c(OC)cccc4s3)o2)c(OC)c1`, the EC50 (in general, the concentration at which the effect is half-maximal) is > 59.6 µM (inactive).

For the compound `COc1ccccc1NC(=O)c1cnc(SCC(=O)NCc2ccc3c(c2)OCO3)n(C)c1=O`, the EC50 was > 59.6 µM (inactive).

For the compound `COc1ccccc1NC(=O)c1cnc(SCC(=O)Nc2nc3ccccc3s2)n(C)c1=O`, the EC50 was > 59.6 µM (inactive).

Consider `COc1ccccc1-c1nnc(Nc2nc3ccc(F)cc3s2)o1`, for which the EC50 was > 59.6 µM (inactive).

Turning to `Clc1ccc(-c2nnc(Nc3nc4cc5c(cc4s3)OCO5)o2)cc1`, the EC50 is > 59.6 µM (inactive).

As to `COc1ccc(-c2nnc(Nc3nc4c(OC)cccc4s3)o2)cc1`, the EC50 was > 59.6 µM (inactive). As for `Cn1c(SCC(=O)NCC2CCCO2)ncc(C(=O)Nc2ccc(F)cc2)c1=O` (configuration not stated), the EC50 is > 59.6 µM (inactive).

Consider `Clc1ccccc1-c1nnc(Nc2nc3cc4c(cc3s2)OCO4)o1`, for which the EC50 is > 59.6 µM (inactive). `COc1ccccc1NC(=O)c1cnc(SCC(=O)Nc2ccc3c(c2)OCO3)n(C)c1=O`: the EC50 is > 59.6 µM (inactive). `COc1ccc(-c2nnc(Nc3nc4ccc(SC)cc4s3)o2)c(OC)c1`: the EC50 was > 59.6 µM (inactive). With `COc1cccc2sc(Nc3nnc(-c4ccc(F)cc4)o3)nc12`, the EC50 was > 59.6 µM (inactive). As for `COc1cccc2sc(Nc3nnc(-c4ccccc4)o3)nc12`, the EC50 is > 59.6 µM (inactive). For `COc1ccc(-c2nnc(Nc3nc4cc(OC)ccc4s3)o2)c(OC)c1`, the EC50 is > 59.6 µM (inactive). As to `Fc1cccc2sc(Nc3nnc(-c4ccccc4Cl)o3)nc12`, the EC50 is > 59.6 µM (inactive). The value for `COc1ccc(-c2nnc(Nc3nc4c(F)cccc4s3)o2)c(OC)c1` was > 59.6 µM (inactive); that for `Fc1ccc(-c2nnc(Nc3nc4c(F)cccc4s3)o2)cc1` was > 59.6 µM (inactive). Regarding `CSc1ccc2nc(Nc3nnc(-c4ccc5c(c4)OCCO5)o3)sc2c1`, the EC50 is > 59.6 µM (inactive). With `COc1ccccc1CNC(=O)CSc1ncc(C(=O)Nc2ccccc2)c(=O)n1C`, the EC50 was > 59.6 µM (inactive). For the compound `COc1cccc2sc(Nc3nnc(-c4ccccc4Cl)o3)nc12`, the EC50 is > 59.6 µM (inactive). Regarding `Cn1c(SCC(=O)NCC2CCCO2)ncc(C(=O)Nc2ccccc2)c1=O` (configuration not stated), the EC50 was > 59.6 µM (inactive). Under `COc1ccc(-c2nnc(Nc3nc4ccc(OC)cc4s3)o2)c(OC)c1` stands > 59.6 µM (inactive); under `CCc1nnc(NC(=O)CSc2ncc(C(=O)Nc3ccc(C)c(C)c3)c(=O)n2C)s1`, > 59.6 µM (inactive); under `COc1ccccc1NC(=O)c1cnc(SCC(=O)NCc2ccccc2)n(C)c1=O`, > 59.6 µM (inactive). With `Fc1ccc2nc(Nc3nnc(-c4ccccc4Cl)o3)sc2c1`, the EC50 is > 59.6 µM (inactive).

On to `COc1ccccc1-c1nnc(Nc2nc3c(OC)cccc3s2)o1`, for which the EC50 was > 59.6 µM (inactive). Turning to `CSc1ccc2nc(Nc3nnc(-c4ccccc4Cl)o3)sc2c1`, the EC50 was > 59.6 µM (inactive). For `COc1ccccc1NC(=O)c1cnc(SCC(=O)NCCc2ccccc2)n(C)c1=O`, the EC50 was > 59.6 µM (inactive).

Consider `COc1ccccc1NC(=O)c1cnc(SCC(=O)NCC2CCCO2)n(C)c1=O` (configuration not stated), for which the EC50 is > 59.6 µM (inactive). As for `Cc1ccc(NC(=O)c2cnc(SCC(=O)Nc3cccc(C(F)(F)F)c3)n(C)c2=O)cc1C`, the EC50 is > 59.6 µM (inactive).

`Cn1c(SCC(=O)NCC2CCCO2)ncc(C(=O)Nc2ccc(Cl)cc2)c1=O` (configuration not stated): the EC50 was > 59.6 µM (inactive). Regarding `COc1ccccc1NC(=O)c1cnc(SCC(=O)Nc2cc(C)on2)n(C)c1=O`, the EC50 is > 59.6 µM (inactive). As to `COc1ccc(-c2nnc(Nc3nc4ccc(F)cc4s3)o2)c(OC)c1`, the EC50 is > 59.6 µM (inactive).
